Experimental data as given in PubChem BioAssay AID248 (DTP/NCI, 2004).
Where “and” joins values, the source holds several entries; their conditions need not be identical. Identical values can stand only once. Inconclusive results and toxic doses are left out. Rule as the data show it: active = T/C of 150% or more; inactive = T/C below 125%.

System: L1210 leukemia ip in BDF1 mice, survival T/C
Assay: NCI In Vivo Anticancer Drug Screen. Data for tumor model L1210 Leukemia (intraperitoneal) in B6D2F1 (BDF1) mice
Conditions: endpoint: mean survival time, higher = longer survival
In short: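 Value reflects the ratio of survival in compound-treated mice to survival in vehicle-treated controls, with both groups carrying the same transplanted tumor.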

[1] = dose: 100.0 mg/kg/injection, schedule: Q04DX003 (ip), vehicle: Klucel (hydroxypropylcellulose) (HPC)
[2] = dose: 200.0 mg/kg/injection, schedule: Q04DX003 (ip), vehicle: Klucel (hydroxypropylcellulose) (HPC)
[3] = dose: 400.0 mg/kg/injection, schedule: Q04DX003 (ip), vehicle: Klucel (hydroxypropylcellulose) (HPC)
[4] = dose: 100.0 mg/kg/injection, schedule: Q04DX003 (ip), vehicle: saline
[5] = dose: 100.0 mg/kg/injection, schedule: Q01DX009 (ip), vehicle: saline with Tween-80

Measured: T/C

N=C(N)N/N=C(/c1ccccc1)c1ccc(Oc2ccc(/C(=N/NC(=N)N)c3ccccc3)cc2)cc1
inactive: dose: 60.0 mg/kg/injection, schedule: Q01DX Z (oral), vehicle: methylcellulose (MC) 95 % of control | dose: 240.0 mg/kg/injection, schedule: Q01DX Z (ip), vehicle: methylcellulose (MC) 101 % of control | dose: 240.0 mg/kg/injection, schedule: Q01DX Z (oral), vehicle: methylcellulose (MC) 97 % of control | dose: 360.0 mg/kg/injection, schedule: Q01DX Z (ip), vehicle: methylcellulose (MC) 102 % of control | dose: 480.0 mg/kg/injection, schedule: Q01DX Z (ip), vehicle: methylcellulose (MC) 101 % of control | dose: 480.0 mg/kg/injection, schedule: Q01DX Z (oral), vehicle: methylcellulose (MC) 111 % of control

CC(=O)NCCc1[nH]cnc1N=Nc1ccc(Br)cc1
inactive: dose: 100.0 mg/kg/injection, schedule: Q01DX001 (ip), vehicle: saline with Tween-80 96 % of control | dose: 200.0 mg/kg/injection, schedule: Q01DX001 (ip), vehicle: saline with Tween-80 96 % of control | dose: 400.0 mg/kg/injection, schedule: Q01DX001 (ip), vehicle: saline with Tween-80 94 % of control

COc1ccccc1N=NN(C)C
inactive: dose: 1.0 mg/kg/injection, schedule: Q01DX009 (ip), vehicle: Klucel (hydroxypropylcellulose) (HPC) 115 % of control | dose: 3.0 mg/kg/injection, schedule: Q01DX009 (ip), vehicle: Klucel (hydroxypropylcellulose) (HPC) 101 % of control | dose: 3.12 mg/kg/injection, schedule: Q01DX009 (ip), vehicle: Klucel (hydroxypropylcellulose) (HPC) 100 % of control | dose: 3.12 mg/kg/injection, schedule: Q04DX003 (ip), vehicle: Klucel (hydroxypropylcellulose) (HPC) 95 % of control | dose: 6.0 mg/kg/injection, schedule: Q01DX009 (ip), vehicle: Klucel (hydroxypropylcellulose) (HPC) 115 % of control | dose: 6.25 mg/kg/injection, schedule: Q01DX009 (ip), vehicle: Klucel (hydroxypropylcellulose) (HPC) 108 % of control | dose: 6.25 mg/kg/injection, schedule: Q04DX003 (ip), vehicle: Klucel (hydroxypropylcellulose) (HPC) 109 % of control | dose: 12.5 mg/kg/injection, schedule: Q01DX009 (ip), vehicle: Klucel (hydroxypropylcellulose) (HPC) 94 % of control | dose: 12.5 mg/kg/injection, schedule: Q04DX003 (ip), vehicle: Klucel (hydroxypropylcellulose) (HPC) 113 % of control

O=C(O)CCC(=O)Nc1ccc2c(c1)B(O)OC2
inactive: dose: 50.0 mg/kg/injection, schedule: Q04DX003 (ip), vehicle: Klucel (hydroxypropylcellulose) (HPC) 101 % of control | [1] 96 % of control and 90 % of control | [2] 96 % of control | [3] 88 % of control

Cc1cc([N+](=O)[O-])c(N)c([N+](=O)[O-])c1
inactive: dose: 100.0 mg/kg/injection, schedule: Q01DX009 (ip), vehicle: Klucel (hydroxypropylcellulose) (HPC) 98 % of control | [1] 105 % of control | dose: 200.0 mg/kg/injection, schedule: Q01DX009 (ip), vehicle: Klucel (hydroxypropylcellulose) (HPC) 92 % of control | [2] 105 % of control | dose: 400.0 mg/kg/injection, schedule: Q01DX009 (ip), vehicle: Klucel (hydroxypropylcellulose) (HPC) 97 % of control | [3] 105 % of control

CC1(C)CC(=NNC2=NC=NC3=NC=NC32)CC(C)(C)N1O (stereo not given)
inactive: dose: 25.0 mg/kg/injection, schedule: Q04DX003 (ip), vehicle: saline 98 % of control | dose: 50.0 mg/kg/injection, schedule: Q04DX003 (ip), vehicle: saline 102 % of control | [4] 102 % of control

CCOc1ccn(C2OC(COC(C)=O)C(OC(C)=O)C(OC(C)=O)C2Nc2ccc([N+](=O)[O-])cc2[N+](=O)[O-])c(=O)n1 (stereo not given)
inactive: dose: 100.0 mg/kg/injection, schedule: Q01DX001 (ip), vehicle: saline 103 % of control | dose: 200.0 mg/kg/injection, schedule: Q01DX001 (ip), vehicle: saline 100 % of control | dose: 400.0 mg/kg/injection, schedule: Q01DX001 (ip), vehicle: saline 97 % of control

CN(C)CCNS(=O)(=O)N(C)C
inactive: dose: 100.0 mg/kg/injection, schedule: Q01DX009 (ip), vehicle: saline 102 % of control | [4] 95 % of control | dose: 200.0 mg/kg/injection, schedule: Q01DX009 (ip), vehicle: saline 102 % of control | dose: 200.0 mg/kg/injection, schedule: Q04DX003 (ip), vehicle: saline 100 % of control | dose: 400.0 mg/kg/injection, schedule: Q01DX009 (ip), vehicle: saline 108 % of control | dose: 400.0 mg/kg/injection, schedule: Q04DX003 (ip), vehicle: saline 97 % of control

CCN(C(=O)Nc1cccc2ccccc12)c1ccccc1C
inactive: dose: 100.0 mg/kg/injection, schedule: Q01DX009 (ip), vehicle: gum acacia 100 % of control | dose: 100.0 mg/kg/injection, schedule: Q04DX003 (ip), vehicle: gum acacia 98 % of control | dose: 200.0 mg/kg/injection, schedule: Q01DX009 (ip), vehicle: gum acacia 96 % of control | dose: 200.0 mg/kg/injection, schedule: Q04DX003 (ip), vehicle: gum acacia 98 % of control | dose: 400.0 mg/kg/injection, schedule: Q01DX009 (ip), vehicle: gum acacia 86 % of control | dose: 400.0 mg/kg/injection, schedule: Q04DX003 (ip), vehicle: gum acacia 96 % of control

O=C(OC1c2cccc3cccc(c23)C1O)c1ccccc1 (stereo not given)
inactive: dose: 100.0 mg/kg/injection, schedule: Q04DX003 (ip), vehicle: other 95 % of control | dose: 200.0 mg/kg/injection, schedule: Q04DX003 (ip), vehicle: other 93 % of control | dose: 400.0 mg/kg/injection, schedule: Q04DX003 (ip), vehicle: other 90 % of control

O=C(Nc1ccc(S(=O)(=O)Nc2ccc(N=Nc3ccc(N=Nc4ccccc4)cc3)cc2)cc1)C(N1CC1)(N1CC1)N1CC1
inactive: dose: 15.0 mg/kg/injection, schedule: Q01DX001 (ip), vehicle: saline 104 % of control | dose: 30.0 mg/kg/injection, schedule: Q01DX001 (ip), vehicle: saline 117 % of control | dose: 60.0 mg/kg/injection, schedule: Q01DX001 (ip), vehicle: saline 102 % of control

C/C(=N\O)c1ccc[n+](Cc2ccc(C)cc2)c1
inactive: dose: 9.38 mg/kg/injection, schedule: Q01DX001 (ip), vehicle: other 97 % of control | dose: 18.75 mg/kg/injection, schedule: Q01DX001 (ip), vehicle: other 97 % of control

OC1(Cc2ccccc2)CCCCCC1
inactive: dose: 100.0 mg/kg/injection, schedule: Q01DX005 (ip), vehicle: other 118 % of control | dose: 100.0 mg/kg/injection, schedule: Q01DX009 (ip), vehicle: other 103 % of control | dose: 200.0 mg/kg/injection, schedule: Q01DX005 (ip), vehicle: other 93 % of control | dose: 200.0 mg/kg/injection, schedule: Q01DX009 (ip), vehicle: other 118 % of control | dose: 400.0 mg/kg/injection, schedule: Q01DX005 (ip), vehicle: other 93 % of control | dose: 400.0 mg/kg/injection, schedule: Q01DX009 (ip), vehicle: other 100 % of control

O=C1c2ccccc2-c2cc([N+](=O)[O-])c(NC(=O)C(Cl)Cl)cc21
inactive: dose: 100.0 mg/kg/injection, schedule: Q01DX001 (ip), vehicle: carboxymethylcellulose (CMC) 96 % of control | dose: 200.0 mg/kg/injection, schedule: Q01DX001 (ip), vehicle: carboxymethylcellulose (CMC) 107 % of control | dose: 400.0 mg/kg/injection, schedule: Q01DX001 (ip), vehicle: carboxymethylcellulose (CMC) 102 % of control

O=C(O)C(Oc1ccc(Cl)cc1Cl)C(=O)O
inactive: dose: 100.0 mg/kg/injection, schedule: Q04DX002 (ip), vehicle: other 93 % of control | dose: 200.0 mg/kg/injection, schedule: Q04DX002 (ip), vehicle: other 97 % of control | dose: 400.0 mg/kg/injection, schedule: Q04DX002 (ip), vehicle: other 95 % of control

CCCCC1C(=O)N2c3ccccc3-c3ccccc3N2C1=O
inactive: dose: 75.0 mg/kg/injection, schedule: Q01DX001 (ip), vehicle: saline 99 % of control | dose: 150.0 mg/kg/injection, schedule: Q01DX001 (ip), vehicle: saline 96 % of control | dose: 300.0 mg/kg/injection, schedule: Q01DX001 (ip), vehicle: saline 101 % of control

CCOC(=O)C1(C)OC1c1ccc2c(c1)OCO2 (stereo not given)
inactive: [5] 106 % of control | dose: 200.0 mg/kg/injection, schedule: Q01DX009 (ip), vehicle: saline with Tween-80 95 % of control | dose: 400.0 mg/kg/injection, schedule: Q01DX009 (ip), vehicle: saline with Tween-80 103 % of control

CN(CCO)C1CCCCCCC1
inactive: dose: 100.0 mg/kg/injection, schedule: Q01DX001 (ip), vehicle: acetone 100 % of control

O=C(CNC(=O)Nc1nccs1)N/N=C/c1ccc(Cl)cc1
inactive: dose: 50.0 mg/kg/injection, schedule: Q01DX009 (ip), vehicle: saline with Tween-80 106 % of control | [5] 89 % of control
